We go through 18 compounds from patent US20230248665A1, “COMPOSITION COMPRISING DIMETHYLCHALCONE DERIVATIVE FOR PREVENTION OR TREATMENT OF METABOLIC DISEASE” (SEOUL NATIONAL UNIVERSITY R & DB FOUNDATION, priority 2020, published 2023).

Each structure is given as a SMILES string.

Type in all cases: cell-based
Experiment [1] deals with AMPK. Put plainly: AMPK activity, western blotting of phosphorylated AMPK in C2C12 myotubes. The conditions noted are these: FIG. 2. An excerpt: AMP-activated protein kinase (AMPK) is a member of serine/threonine kinases, and is an enzyme known as an energy sensor which senses the intracellular energy state. Moreover, the activation of AMPK is known to show the effect of increasing glucose transport and promoting fatty acid oxidation in skeletal muscle, and to […] the synthesis of cholesterol and triglycerides, decrease lipogenesis, and increase fatty acid oxidation, and ketogenesis, and the like in the liver. Further, the activation of AMPK is known to reduce adipogenesis in adipose tissue and increase insulin secretion in pancreatic beta cells, thereby being able to be applied to the treatment of various metabolic diseases. Therefore, western blotting was performed in order to confirm the effect of the DMC derivatives of Example 1 on AMPK activity. More specifically, the C2C12 myoblasts were primarily cultured in DMEM supplemented with 10% fetal bovine serum, and then cultured in DMEM supplemented with 2% horse serum for 5 days to differentiate into myotubes. Then, the differentiated myotubes were treated with 10 µM DMC derivative and cultured for 24 hours, and then cells were collected, and disrupted using an ultrasonic disperser to obtain proteins. Next, western blotting was performed using a pAMPK antibody (Cell Signaling Technology) and an AMPK antibody (Cell Signaling Technology) to measure the amount of phosphorylated AMPK. 1 mM AICAR was used as a positive control, and 20 µg of protein was used for each sample in western blotting.
(In western blotting, separated proteins are transferred to a membrane and probed.)

Experiment [2] concerns human kidney proximal tubule epithelial cell (HK-2) cell line. Put plainly: Antioxidant effect, intracellular reactive oxygen species (DCF-DA) in HK-2 kidney cells after H2O2. The conditions noted are these: 1 µM for 18 hours, then 500 µM H2O2 for 6 hours, FIG. 6. On the procedure: First, the antioxidant effect was checked using kidney cells. More specifically, a human kidney proximal tubule epithelial cell (HK-2) cell line was treated with 1 µM DMC derivative and cultured for 18 hours. Then, 500 µM H2O2 was added to the culture medium and the culture medium was incubated for 6 hours. Thereafter, the amount of intracellular reactive oxygen species (iROS) was measured using dichlorohydro-fluorescein diacetate (DCF-DA).

Experiment [3] has as its system rat aortic smooth muscle cells. Nature of the experiment: PDGF-induced migration of vascular smooth muscle cells. The conditions noted are these: 1 µM with 10 ng/mL PDGF; FIG. 4. How it is done:
Proliferation and migration of vascular smooth muscle cells are known to be essential steps in the progression of vascular diseases such as restenosis and arteriosclerosis. Therefore, in order to confirm the effect of the DMC derivatives of Example 1 on the migration of rat aortic smooth muscle cells, smooth muscle cells were treated with 10 ng/mL platelet-derived growth factor (PDGF) and 1 µM DMC derivative and cultured. Then, the degree of cell migration was measured.

Consider `NC(=O)c1ncn([C@@H]2O[C@H](CO)[C@@H](O)[C@H]2O)c1N` [AICAR, reference compound], for which, in experiment [1] (positive control 1 mM AICAR), the “activity of AMPK (phosphorylated AMPK)” value was “increased the activity of AMPK”.
On to `COc1c(C)c(O)c(C)c(O)c1C(=O)/C=C/c1ccc(C(C)C)cc1` [Chemical Formula 4, 1-(2′,4′-dihydroxy-6′-methoxy-3′,5′-dimethylphenyl)-3-(4-isopropylphenyl)-2-propen-1-one], for which the “amount of intracellular reactive oxygen species (ROS)” value (from here on “amount”) in experiment [2] is on record as “effectively reduced ROS”. The “migration of vascular smooth muscle cells” value (“migration” for short) in experiment [3] was “similarly or more effectively suppressed cell migration by PDGF than AICAR and Rosi, which were used as positive controls, and DMC”.
In the case of `COc1ccc(/C=C/C(=O)c2c(O)c(C)c(O)c(C)c2OC)cc1` [Chemical Formula 5, 1-(2′,4′-dihydroxy-6′-methoxy-3′,5′-dimethylphenyl)-3-(4-methoxyphenyl)-2-propen-1-one], the “activity of AMPK (phosphorylated AMPK)” value in experiment [1] (10 µM, 24 hours) is recorded as “increased the activity of AMPK similarly to or more effectively than the positive controls”.
In the case of `COc1c(C)c(OC)c(C(=O)/C=C/c2ccc(F)cc2)c(OC)c1C` [Chemical Formula 16, 1-(3′,5′-dimethyl-2′,4′,6′-trimethoxyphenyl)-3-(4-fluorophenyl)-2-propen-1-one], the “amount” value in experiment [2] is listed as “effectively reduced ROS”. The “migration” value in experiment [3] is “similarly or more effectively suppressed cell migration by PDGF than AICAR and Rosi, which were used as positive controls, and DMC”.
On to `COc1c(C)c(OC)c(C(=O)/C=C/c2ccccc2)c(OC)c1C` [Chemical Formula 17, 1-(3′,5′-dimethyl-2′,4′,6′-trimethoxyphenyl)-3-phenyl-2-propen-1-one], for which, in experiment [2], the “amount” value is listed as “effectively reduced ROS”. Moreover, the “migration” value in experiment [3] was “similarly or more effectively suppressed cell migration by PDGF than AICAR and Rosi, which were used as positive controls, and DMC”.
Regarding `COc1c(C)c(OC)c(C(=O)/C=C/c2ccc(C)cc2)c(OC)c1C` [Chemical Formula 18, 1-(3′,5′-dimethyl-2′,4′,6′-trimethoxyphenyl)-3-(4-tolyl)-2-propen-1-one], the “migration” value in experiment [3] is “similarly or more effectively suppressed cell migration by PDGF than AICAR and Rosi, which were used as positive controls, and DMC”.
Consider `COc1c(C)c(OC)c(C(=O)/C=C/c2ccc(C(C)C)cc2)c(OC)c1C` [Chemical Formula 19, 1-(3′,5′-dimethyl-2′,4′,6′-trimethoxyphenyl)-3-(4-isopropylphenyl)-2-propen-1-one], for which the “activity of AMPK (phosphorylated AMPK)” value in experiment [1] (10 µM, 24 hours) is recorded as “increased the activity of AMPK similarly to or more effectively than the positive controls”. In experiment [3], the “migration” value is “similarly or more effectively suppressed cell migration by PDGF than AICAR and Rosi, which were used as positive controls, and DMC”.
As for `COCOc1ccc(/C=C/C(=O)c2c(OC)c(C)c(OC)c(C)c2OC)cc1` [Chemical Formula 20, 1-(3′,5′-dimethyl-2′,4′,6′-trimethoxyphenyl)-3-(4-methoxymethoxyphenyl)-2-propen-1-one], the “activity of AMPK (phosphorylated AMPK)” value in experiment [1] (10 µM, 24 hours) is given as “increased the activity of AMPK similarly to or more effectively than the positive controls”. Moreover, the “amount” value in experiment [2] was “effectively reduced ROS”. Also, the “migration” value in experiment [3] was “similarly or more effectively suppressed cell migration by PDGF than AICAR and Rosi, which were used as positive controls, and DMC”.
On to `COc1ccc(/C=C/C(=O)c2c(OC)c(C)c(OC)c(C)c2OC)cc1` [Chemical Formula 21, 1-(3′,5′-dimethyl-2′,4′,6′-trimethoxyphenyl)-3-(4-methoxyphenyl)-2-propen-1-one], for which, in experiment [1] (10 µM, 24 hours), the “activity of AMPK (phosphorylated AMPK)” value is listed as “increased the activity of AMPK similarly to or more effectively than the positive controls”. The “migration” value in experiment [3] is “similarly or more effectively suppressed cell migration by PDGF than AICAR and Rosi, which were used as positive controls, and DMC”.
For `COc1c(C)c(OC)c(C(=O)/C=C/c2ccc(O)cc2)c(OC)c1C` [Chemical Formula 22, 1-(3′,5′-dimethyl-2′,4′,6′-trimethoxyphenyl)-3-(4-hydroxyphenyl)-2-propen-1-one], in experiment [1] (10 µM, 24 hours), the “activity of AMPK (phosphorylated AMPK)” value is given as “increased the activity of AMPK similarly to or more effectively than the positive controls”. Moreover, in experiment [3], the “migration” value is “similarly or more effectively suppressed cell migration by PDGF than AICAR and Rosi, which were used as positive controls, and DMC”.
Consider `COCOc1c(C)c(O)c(C(=O)/C=C/c2ccc(C)cc2)c(OC)c1C` [Chemical Formula 26, 1-(2′-hydroxy-4′-(methoxymethoxy)-6′-methoxy-3′,5′-dimethylphenyl)-3-(4-tolyl)-2-propen-1-one], for which the “activity of AMPK (phosphorylated AMPK)” value in experiment [1] (10 µM, 24 hours) is given as “increased the activity of AMPK similarly to or more effectively than the positive controls”. Further, in experiment [3], the “migration” value was “similarly or more effectively suppressed cell migration by PDGF than AICAR and Rosi, which were used as positive controls, and DMC”.
With `COCOc1c(C)c(O)c(C(=O)/C=C/c2ccc(C(C)C)cc2)c(OC)c1C` [Chemical Formula 27, 1-(2′-hydroxy-4′-(methoxymethoxy)-6′-methoxy-3′,5′-dimethylphenyl)-3-(4-isopropylphenyl)-2-propen-1-one], the “activity of AMPK (phosphorylated AMPK)” value in experiment [1] (10 µM, 24 hours) is “increased the activity of AMPK similarly to or more effectively than the positive controls”. The “migration” value in experiment [3] is “similarly or more effectively suppressed cell migration by PDGF than AICAR and Rosi, which were used as positive controls, and DMC”.
On to `COCOc1ccc(/C=C/C(=O)c2c(O)c(C)c(OCOC)c(C)c2OC)cc1` [Chemical Formula 28, 1-(2′-hydroxy-4′-(methoxymethoxy)-6′-methoxy-3′,5′-dimethylphenyl)-3-(4-methoxymethoxyphenyl)-2-propen-1-one], for which the “activity of AMPK (phosphorylated AMPK)” value in experiment [1] (10 µM, 24 hours) is given as “increased the activity of AMPK similarly to or more effectively than the positive controls”. Further, the “migration” value in experiment [3] was “similarly or more effectively suppressed cell migration by PDGF than AICAR and Rosi, which were used as positive controls, and DMC”.
On to `COCOc1c(C)c(O)c(C(=O)/C=C/c2ccc(OC)cc2)c(OC)c1C` [Chemical Formula 29, 1-(2′-hydroxy-4′-(methoxymethoxy)-6′-methoxy-3′,5′-dimethylphenyl)-3-(4-methoxyphenyl)-2-propen-1-one], for which the “activity of AMPK (phosphorylated AMPK)” value in experiment [1] (10 µM, 24 hours) is given as “increased the activity of AMPK similarly to or more effectively than the positive controls”. Further, the “migration” value in experiment [3] is “similarly or more effectively suppressed cell migration by PDGF than AICAR and Rosi, which were used as positive controls, and DMC”.
On to `COc1c(C)c(O)c(C)c(O)c1C(=O)/C=C/c1cccc(F)c1` [Chemical Formula 32, 1-(2′,4′-dihydroxy-6′-methoxy-3′,5′-dimethylphenyl)-3-(3-fluorophenyl)-2-propen-1-one], for which the “activity of AMPK (phosphorylated AMPK)” value in experiment [1] (10 µM, 24 hours) was “increased the activity of AMPK similarly to or more effectively than the positive controls”.
Regarding `COCOc1c(C)c(O)c(C(=O)/C=C/c2ccccc2F)c(OC)c1C` [Chemical Formula 34, 1-(2′-hydroxy-4′-(methoxymethoxy)-6′-methoxy-3′,5′-dimethylphenyl)-3-(2-fluorophenyl)-2-propen-1-one], the “migration” value in experiment [3] is “similarly or more effectively suppressed cell migration by PDGF than AICAR and Rosi, which were used as positive controls, and DMC”.
As for `COc1c(C)c(O)c(C)c(O)c1C(=O)/C=C/c1ccccc1Cl` [Chemical Formula 37, 1-(2′,4′-dihydroxy-6′-methoxy-3′,5′-dimethylphenyl)-3-(2-chlorophenyl)-2-propen-1-one], the “activity of AMPK (phosphorylated AMPK)” value in experiment [1] (10 µM, 24 hours) is listed as “increased the activity of AMPK similarly to or more effectively than the positive controls”. For the same compound, the “migration” value in experiment [3] was “similarly or more effectively suppressed cell migration by PDGF than AICAR and Rosi, which were used as positive controls, and DMC”.
In the case of `COc1c(C)c(O)c(C)c(O)c1C(=O)/C=C/c1ccccc1` [DMC, 2′,4′-dihydroxy-6′-methoxy-3′,5′-dimethylchalcone, reference compound], the “activity of AMPK (phosphorylated AMPK)” value in experiment [1] (10 µM, 24 hours) was “increased the activity of AMPK”.
